# Source: US4442044A, “Process for preparing monoesters and diesters of N-alkyl substituted amino methyl phosphonic acid” (priority 1983, dated 1984)
# Key:
# Assay type in all cases: in vivo
# [1] = test system: Johnsongrass; assay: pre-emergent herbicidal activity, soil incorporation; conditions: Table III, 2 WAT, 11.2 kg/h
# How it was run: (§1)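 Compound incorporated into cover soil at a known active-ingredient amount over surface-placed seeds and propagules. Plants emerging after roughly two weeks are compared with untreated pans.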
# [2] = test system: Downy Brome; assay: as above; conditions: Table III, 2 WAT, 11.2 kg/h
# How it was run: as §1
# [3] = test system: Yellow Nutsedge; assay: as above; conditions: Table III, 2 WAT, 11.2 kg/h
# How it was run: as §1
# [4] = test system: Lambsquarters; assay: as above; conditions: Table III, 2 WAT, 11.2 kg/h
# How it was run: as §1
# [5] = test system: Velvetleaf; assay: as above; conditions: Table III, 2 WAT, 11.2 kg/h
# How it was run: as §1
# [6] = test system: Canada Thistle; assay: as above; conditions: Table III, 2 WAT, 11.2 kg/h
# How it was run: as §1
# [7] = test system: Barnyardgrass; assay: as above; conditions: Table III, 2 WAT, 11.2 kg/h
# How it was run: as §1
# [8] = test system: Smartweed; assay: as above; conditions: Table III, 2 WAT, 11.2 kg/h
# How it was run: as §1
# [9] = test system: Cocklebur; assay: as above; conditions: Table III, 2 WAT, 11.2 kg/h
# How it was run: as §1
# [10] = test system: Quackgrass; assay: as above; conditions: Table III, 2 WAT, 11.2 kg/h
# How it was run: as §1
# [11] = test system: Morningglory; assay: as above; conditions: Table III, 2 WAT, 11.2 kg/h
# How it was run: as §1
# [12] = test system: Hemp Sesbania; assay: post-emergent herbicidal activity, greenhouse; conditions: Table II, 4 WAT
# How it was run: (§2)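 Seeds or propagules sown in compacted top soil, grown 2–3 weeks in greenhouse, then sprayed with compound solution/suspension containing ~0.4% emulsifier at tabulated rates. Injury scored visually versus untreated controls at ~2 and 4 weeks after treatment, expressed as a herbicidal activity index.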
# [13] = test system: Johnsongrass; assay: post-emergent herbicidal activity, greenhouse; conditions: Table I, 4 WAT
# How it was run: as §2
# [14] = test system: Downy Brome; assay: post-emergent herbicidal activity, greenhouse; conditions: 4 WAT
# How it was run: as §2
# [15] = test system: Yellow Nutsedge; assay: post-emergent herbicidal activity, greenhouse; conditions: Table I, 4 WAT
# How it was run: as §2
# [16] = test system: Soybean; assay: post-emergent herbicidal activity, greenhouse; conditions: Table II, 4 WAT
# How it was run: as §2
# [17] = test system: Rice; assay: post-emergent herbicidal activity, greenhouse; conditions: Table II, 4 WAT
# How it was run: as §2
# [18] = test system: Lambsquarters; assay: post-emergent herbicidal activity, greenhouse; conditions: 4 WAT
# How it was run: as §2
# [19] = test system: Wheat; assay: post-emergent herbicidal activity, greenhouse; conditions: Table II, 4 WAT
# How it was run: as §2
# [20] = test system: Velvetleaf; assay: post-emergent herbicidal activity, greenhouse; conditions: 4 WAT
# How it was run: as §2
# [21] = test system: Canada Thistle; assay: post-emergent herbicidal activity, greenhouse; conditions: Table I, 4 WAT
# How it was run: as §2
# [22] = test system: Barnyardgrass; assay: post-emergent herbicidal activity, greenhouse; conditions: 4 WAT
# How it was run: as §2
# [23] = test system: Smartweed; assay: post-emergent herbicidal activity, greenhouse; conditions: 4 WAT
# How it was run: as §2
# [24] = test system: Wild Buckwheat; assay: post-emergent herbicidal activity, greenhouse; conditions: Table II, 4 WAT
# How it was run: as §2
# [25] = test system: Sugar Beet; assay: post-emergent herbicidal activity, greenhouse; conditions: Table II, 4 WAT
# How it was run: as §2
# [26] = test system: Cocklebur; assay: post-emergent herbicidal activity, greenhouse; conditions: 4 WAT
# How it was run: as §2
# [27] = test system: Quackgrass; assay: post-emergent herbicidal activity, greenhouse; conditions: Table I, 4 WAT
# How it was run: as §2
# [28] = test system: Panicum Spp; assay: post-emergent herbicidal activity, greenhouse; conditions: Table II, 4 WAT
# How it was run: as §2
# [29] = test system: Sorghum; assay: post-emergent herbicidal activity, greenhouse; conditions: Table II, 4 WAT
# How it was run: as §2
# [30] = test system: Morningglory; assay: post-emergent herbicidal activity, greenhouse; conditions: 4 WAT
# How it was run: as §2
# [31] = test system: Crabgrass; assay: post-emergent herbicidal activity, greenhouse; conditions: Table II, 4 WAT
# How it was run: as §2
compound,measurement,setting,value
"CCCCCOC(=O)CNCP(=O)(O)OC(C)C#N (stereo not drawn) [Example 6, glycine, N-[[(1-cyanoethoxy)hydroxy-phosphinyl]methyl]pentyl ester, hemihydrate]",pre-emergent herbicidal activity index,[1],0 (1-24% control)
same,pre-emergent herbicidal activity index,[2],0 (1-24% control)
same,pre-emergent herbicidal activity index,[3],0 (1-24% control)
same,pre-emergent herbicidal activity index,[4],0 (1-24% control)
same,pre-emergent herbicidal activity index,[5],0 (1-24% control)
same,pre-emergent herbicidal activity index,[6],0 (1-24% control)
same,pre-emergent herbicidal activity index,[7],0 (1-24% control)
same,pre-emergent herbicidal activity index,[8],0 (1-24% control)
same,pre-emergent herbicidal activity index,[9],0 (1-24% control)
same,pre-emergent herbicidal activity index,[10],0 (1-24% control)
same,pre-emergent herbicidal activity index,[11],0 (1-24% control)
same,post-emergent herbicidal activity index,[12]; 0.28 kg/h,1 (25-49% control)
same,post-emergent herbicidal activity index,[12]; 1.12 kg/h,2 (50-74% control)
same,post-emergent herbicidal activity index,[12]; 5.6 kg/h,4 (100% control)
same,post-emergent herbicidal activity index,[13]; 5.6 kg/h,1 (25-49% control)
same,post-emergent herbicidal activity index,[13]; 11.2 kg/h,2 (50-74% control)
same,post-emergent herbicidal activity index,"[14]; Table I, 5.6 kg/h",1 (25-49% control)
same,post-emergent herbicidal activity index,"[14]; Table I, 11.2 kg/h",3 (75-99% control)
same,post-emergent herbicidal activity index,"[14]; Table II, 0.28 kg/h",3 (75-99% control)
same,post-emergent herbicidal activity index,"[14]; Table II, 1.12 kg/h",3 (75-99% control)
same,post-emergent herbicidal activity index,"[14]; Table II, 5.6 kg/h",4 (100% control)
same,post-emergent herbicidal activity index,[15]; 5.6 kg/h,2 (50-74% control)
same,post-emergent herbicidal activity index,[15]; 11.2 kg/h,4 (100% control)
same,post-emergent herbicidal activity index,[16]; 0.28 kg/h,1 (25-49% control)
same,post-emergent herbicidal activity index,[16]; 1.12 kg/h,2 (50-74% control)
same,post-emergent herbicidal activity index,[16]; 5.6 kg/h,4 (100% control)
same,post-emergent herbicidal activity index,[17]; 0.28 kg/h,1 (25-49% control)
same,post-emergent herbicidal activity index,[17]; 1.12 kg/h,2 (50-74% control)
same,post-emergent herbicidal activity index,[17]; 5.6 kg/h,4 (100% control)
same,post-emergent herbicidal activity index,"[18]; Table I, 5.6 kg/h",2 (50-74% control)
same,post-emergent herbicidal activity index,"[18]; Table I, 11.2 kg/h",4 (100% control)
same,post-emergent herbicidal activity index,"[18]; Table II, 0.28 kg/h",1 (25-49% control)
same,post-emergent herbicidal activity index,"[18]; Table II, 1.12 kg/h",3 (75-99% control)
same,post-emergent herbicidal activity index,"[18]; Table II, 5.6 kg/h",4 (100% control)
same,post-emergent herbicidal activity index,[19]; 0.28 kg/h,2 (50-74% control)
same,post-emergent herbicidal activity index,[19]; 1.12 kg/h,2 (50-74% control)
same,post-emergent herbicidal activity index,[19]; 5.6 kg/h,4 (100% control)
same,post-emergent herbicidal activity index,"[20]; Table I, 5.6 kg/h",3 (75-99% control)
same,post-emergent herbicidal activity index,"[20]; Table I, 11.2 kg/h",3 (75-99% control)
same,post-emergent herbicidal activity index,"[20]; Table II, 0.28 kg/h",1 (25-49% control)
same,post-emergent herbicidal activity index,"[20]; Table II, 1.12 kg/h",2 (50-74% control)
same,post-emergent herbicidal activity index,"[20]; Table II, 5.6 kg/h",3 (75-99% control)
same,post-emergent herbicidal activity index,[21]; 5.6 kg/h,4 (100% control)
same,post-emergent herbicidal activity index,[21]; 11.2 kg/h,4 (100% control)
same,post-emergent herbicidal activity index,"[22]; Table I, 5.6 kg/h",3 (75-99% control)
same,post-emergent herbicidal activity index,"[22]; Table I, 11.2 kg/h",3 (75-99% control)
same,post-emergent herbicidal activity index,"[22]; Table II, 0.28 kg/h",2 (50-74% control)
same,post-emergent herbicidal activity index,"[22]; Table II, 1.12 kg/h",3 (75-99% control)
same,post-emergent herbicidal activity index,"[22]; Table II, 5.6 kg/h",3 (75-99% control)
same,post-emergent herbicidal activity index,"[23]; Table I, 5.6 kg/h",4 (100% control)
same,post-emergent herbicidal activity index,"[23]; Table I, 11.2 kg/h",4 (100% control)
same,post-emergent herbicidal activity index,"[23]; Table II, 0.28 kg/h",1 (25-49% control)
same,post-emergent herbicidal activity index,"[23]; Table II, 1.12 kg/h",3 (75-99% control)
same,post-emergent herbicidal activity index,"[23]; Table II, 5.6 kg/h",3 (75-99% control)
same,post-emergent herbicidal activity index,[24]; 0.28 kg/h,2 (50-74% control)
same,post-emergent herbicidal activity index,[24]; 1.12 kg/h,2 (50-74% control)
same,post-emergent herbicidal activity index,[24]; 5.6 kg/h,4 (100% control)
same,post-emergent herbicidal activity index,[25]; 0.28 kg/h,2 (50-74% control)
same,post-emergent herbicidal activity index,[25]; 1.12 kg/h,4 (100% control)
same,post-emergent herbicidal activity index,[25]; 5.6 kg/h,4 (100% control)
same,post-emergent herbicidal activity index,"[26]; Table I, 5.6 kg/h",3 (75-99% control)
same,post-emergent herbicidal activity index,"[26]; Table I, 11.2 kg/h",3 (75-99% control)
same,post-emergent herbicidal activity index,"[26]; Table II, 0.28 kg/h",2 (50-74% control)
same,post-emergent herbicidal activity index,"[26]; Table II, 1.12 kg/h",2 (50-74% control)
same,post-emergent herbicidal activity index,"[26]; Table II, 5.6 kg/h",3 (75-99% control)
same,post-emergent herbicidal activity index,[27]; 5.6 kg/h,2 (50-74% control)
same,post-emergent herbicidal activity index,[27]; 11.2 kg/h,3 (75-99% control)
same,post-emergent herbicidal activity index,[28]; 0.28 kg/h,4 (100% control)
same,post-emergent herbicidal activity index,[28]; 1.12 kg/h,4 (100% control)
same,post-emergent herbicidal activity index,[28]; 5.6 kg/h,4 (100% control)
same,post-emergent herbicidal activity index,[29]; 0.28 kg/h,1 (25-49% control)
same,post-emergent herbicidal activity index,[29]; 1.12 kg/h,3 (75-99% control)
same,post-emergent herbicidal activity index,[29]; 5.6 kg/h,4 (100% control)
same,post-emergent herbicidal activity index,"[30]; Table I, 5.6 kg/h",3 (75-99% control)
same,post-emergent herbicidal activity index,"[30]; Table I, 11.2 kg/h",2 (50-74% control)
same,post-emergent herbicidal activity index,"[30]; Table II, 0.28 kg/h",2 (50-74% control)
same,post-emergent herbicidal activity index,"[30]; Table II, 1.12 kg/h",2 (50-74% control)
same,post-emergent herbicidal activity index,"[30]; Table II, 5.6 kg/h",3 (75-99% control)
same,post-emergent herbicidal activity index,[31]; 0.28 kg/h,3 (75-99% control)
same,post-emergent herbicidal activity index,[31]; 1.12 kg/h,3 (75-99% control)
same,post-emergent herbicidal activity index,[31]; 5.6 kg/h,4 (100% control)
